Paper PMC8849072, “Sudapyridine (WX-081), a Novel Compound against Mycobacterium tuberculosis” (Microbiology Spectrum, 2022)
≈ marks a conversion by molar mass, not a printed value.

Assays:
[1] = tested on: M. tuberculosis susceptible strain 14480; experiment: MIC by microplate alamarBlue assay (MABA); type: cell-based, Mycobacterium tuberculosis; details: Mycobacterium tuberculosis
M. tuberculosis H37Rv [2] = type: in vivo, BALB/c mice
M. tuberculosis H37Rv [3] = experiment: MIC by microplate alamarBlue assay (MABA); type: cell-based, Mycobacterium tuberculosis; details: Mycobacterium tuberculosis, H37RV
[4] = tested on: M. tuberculosis susceptible strain 14286; experiment: MIC by microplate alamarBlue assay (MABA); type: cell-based, Mycobacterium tuberculosis; details: Mycobacterium tuberculosis
[5] = tested on: M. tuberculosis susceptible strain 14241; experiment: MIC by microplate alamarBlue assay (MABA); type: cell-based, Mycobacterium tuberculosis; details: Mycobacterium tuberculosis
[6] = tested on: M. tuberculosis susceptible strain 14242; experiment: MIC by microplate alamarBlue assay (MABA); type: cell-based, Mycobacterium tuberculosis; details: Mycobacterium tuberculosis
[7] = Pharmacokinetic study in beagle dogs; type: in vivo; details: dog; for AUC(0-inf): AUC0-inf; for half-life: plasma
Protocol: (§1) The BALB/c mice, rats, and beagle dogs were used in the PK study and fasted overnight before dosing. Animal doses were administered in two ways. One is oral administration, configured to form a 6.25 mg/kg WX-081, with 0.5% carboxymethylcellulose (CMC), the other is the WX-081 with an intravenous injection of 1.0 mg/kg (formulated in 40% hydroxypropyl-β-cyclodextrin and 50 mM citrate buffer at pH 3). Plasma samples were collected from three animals at each time point. Plasma concentrations were determined by liquid chromatography-tandem mass spectrometry (LC-MS/MS). The bioanalytical method by LC-MS/MS for pharmacokinetic (PK) studies in animal and toxicokinetic (TK) in tox studies have been validated. The total area under the concentration-time curve (AUC0-inf), the elimination half-time (t1/2), the peak concentration (Cmax), and the time to reach peak concentration (Tmax) of samples were determined directly from the experimental data using WinNonlin V6.2.1.

[8] = 14-day repeated oral dose toxicity and toxicokinetic head-to-head study in beagle dogs; type: in vivo, beagle dog
[9] = tested on: M. tuberculosis H37Rv and two clinical isolates (14619, 14242); experiment: Time-kill curve analysis; type: cell-based, Mycobacterium tuberculosis; details: up to 14 days culture
[10] = tested on: M. tuberculosis susceptible strain 14280; experiment: MIC by microplate alamarBlue assay (MABA); type: cell-based, Mycobacterium tuberculosis; details: Mycobacterium tuberculosis
[11] = target: T1, human ether-á-go-go-related (hERG) ion channel (Homo sapiens, UniProt Q12809); experiment: hERG manual patch-clamp assay in hERG-CHO cell; type: cell-based; details: parent compound
T1 construct: expressed in transfected cells; host or cells: hERG-CHO cell (CHO cells expressing hERG)
Protocol: A human ether-á-go-go-related (hERG) ion channel in vitro assay was performed in Shanghai Institute of Materia Medica, Shanghai, for the evaluation of cardiac liability testing. The assay was a manual patch-clamp method using electrophysiology in an hERG-CHO cell.

M. tuberculosis H37Rv [12] = experiment: MBC determination (CFU-based); details: 7 days incubation, 3 log10 CFU decrease
[13] = Pharmacokinetic study in mice; type: in vivo, BALB/c mice; details: for half-life: plasma; for half-life / At 96 h lung/plasma: lung / At 96 h lung/plasma: plasma: Mice; for At 96 h lung/plasma: lung: lung exposure at 96 h (first number of the pair); for At 96 h lung/plasma: plasma: plasma exposure at 96 h (second number of the pair)
Protocol: as §1, with “One is oral administration, configured to form a 6.25 mg/kg WX-081, with 0.5% carboxymethylcellulose (CMC), the other is the WX-081 with an intravenous injection of 1.0 mg/kg (formulated in 40% hydroxypropyl-β-cyclodextrin and 50 mM citrate buffer at pH 3).” left out

[14] = Preliminary in vivo toxicity study in mice
Protocol: Before the in vivo activity test, a preliminary in vivo toxicity study was conducted. All mice tolerated WX-081 at the administered doses. No adverse events were found.

[15] = tested on: M. tuberculosis susceptible strain 14242; experiment: MBC determination (CFU-based); details: 7 days incubation, 3 log10 CFU decrease
[16] = Pharmacokinetic study in rats; type: in vivo, rat; details: for At 96 h lung/plasma: lung / At 96 h lung/plasma: plasma / half-life: Rat; for At 96 h lung/plasma: lung: lung exposure at 96 h (first number of the pair); for At 96 h lung/plasma: plasma: plasma exposure at 96 h (second number of the pair); for half-life: plasma
Protocol: as §1, with “One is oral administration, configured to form a 6.25 mg/kg WX-081, with 0.5% carboxymethylcellulose (CMC), the other is the WX-081 with an intravenous injection of 1.0 mg/kg (formulated in 40% hydroxypropyl-β-cyclodextrin and 50 mM citrate buffer at pH 3).” left out

M. tuberculosis H37Rv [17] = type: in vivo, BALB/c mice; details: acute model
[18] = beagle dogs, 200 mg/kg oral, 14 days
[19] = BALB/c, mouse, in vivo, iv, 1 mg/kg
[20] = BALB/c, mouse, in vivo, po, 6.25 mg/kg

T1 sequence (Q12809 whole entry): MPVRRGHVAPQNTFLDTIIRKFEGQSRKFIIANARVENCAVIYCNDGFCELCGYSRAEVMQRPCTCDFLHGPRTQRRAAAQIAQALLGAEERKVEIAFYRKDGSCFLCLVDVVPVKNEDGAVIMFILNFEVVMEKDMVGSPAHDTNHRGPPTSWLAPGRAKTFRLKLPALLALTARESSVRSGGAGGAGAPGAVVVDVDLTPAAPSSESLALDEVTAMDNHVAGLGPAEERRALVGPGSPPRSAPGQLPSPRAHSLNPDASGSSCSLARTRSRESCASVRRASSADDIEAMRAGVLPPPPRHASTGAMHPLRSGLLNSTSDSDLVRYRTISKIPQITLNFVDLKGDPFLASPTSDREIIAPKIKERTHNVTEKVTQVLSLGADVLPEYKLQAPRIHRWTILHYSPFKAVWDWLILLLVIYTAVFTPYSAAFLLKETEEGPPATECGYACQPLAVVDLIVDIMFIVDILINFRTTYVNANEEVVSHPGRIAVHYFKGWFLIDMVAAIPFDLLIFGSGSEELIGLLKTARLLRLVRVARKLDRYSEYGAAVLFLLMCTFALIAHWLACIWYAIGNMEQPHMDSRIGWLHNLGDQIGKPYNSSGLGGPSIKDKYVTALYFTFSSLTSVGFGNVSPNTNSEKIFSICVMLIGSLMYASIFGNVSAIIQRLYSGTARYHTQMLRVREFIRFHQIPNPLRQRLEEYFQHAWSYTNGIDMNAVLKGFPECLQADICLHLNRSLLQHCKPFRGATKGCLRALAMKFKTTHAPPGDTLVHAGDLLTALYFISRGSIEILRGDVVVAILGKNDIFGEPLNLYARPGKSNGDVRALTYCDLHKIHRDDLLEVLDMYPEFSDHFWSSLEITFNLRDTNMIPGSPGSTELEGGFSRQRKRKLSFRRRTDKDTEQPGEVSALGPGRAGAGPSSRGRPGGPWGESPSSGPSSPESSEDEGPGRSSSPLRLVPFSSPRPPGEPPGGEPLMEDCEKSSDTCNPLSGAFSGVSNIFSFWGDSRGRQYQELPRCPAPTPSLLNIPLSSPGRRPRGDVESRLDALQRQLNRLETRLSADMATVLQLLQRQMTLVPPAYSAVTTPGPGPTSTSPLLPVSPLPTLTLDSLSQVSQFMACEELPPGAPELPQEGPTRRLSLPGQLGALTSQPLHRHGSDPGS

COc1ncc(-c2ccc(Cl)cc2)cc1[C@@H](c1ccccc1)[C@@](O)(CCN(C)C)c1cccc2ccccc12 [WX-081, sudapyridine]
MIC [1]: 0.12 µg/mL (≈ 0.223 µM)
reduction of CFU in the lungs compared with 15 mg/kg RFP (M. tuberculosis H37Rv [2]; chronic model, 5 mg/kg, 8-week treatment): superior
activity compared with BDQ (M. tuberculosis H37Rv [2]; chronic model, 5, 10, and 20 mg/kg orally, 8 weeks): slightly lower than BDQ, there was no significant difference in activity
lung CFU after 8 weeks of treatment (M. tuberculosis H37Rv [2]; chronic model, any dose (5, 10, 20 mg/kg)): declined
MIC (M. tuberculosis H37Rv [3]): 0.07 µg/mL (≈ 0.13 µM)
MIC [4]: 0.152 µg/mL (≈ 0.283 µM)
MIC [5]: 0.117 µg/mL (≈ 0.218 µM)
MIC [6]: 0.219 µg/mL (≈ 0.408 µM)
AUC(0-t) ([7]; in vivo, iv, 0.5 mg/kg): 3610 ng·h/mL
Vd ([7]; in vivo, iv, 0.5 mg/kg): 6.04 L/kg
clearance ([7]; in vivo, iv, 0.5 mg/kg): 2.04 mL/min/kg
AUC(0-inf) ([7]; in vivo, iv, 0.5 mg/kg): 4250 ng·h/mL
AUC(0-t) ([7]; in vivo, po, 2 mg/kg): 8500 ng·h/mL
bioavailability ([7]; in vivo, po, 2 mg/kg): 58.9%
AUC(0-inf) ([7]; in vivo, po, 2 mg/kg): 9490 ng·h/mL
Cmax ([7]; in vivo, po, 2 mg/kg): 390 ng/mL
Tmax ([7]; in vivo, po, 2 mg/kg, Tmax): 4.67 h
AUC(0-t) ([7]; in vivo, po, 6 mg/kg): 20200 ng·h/mL
bioavailability ([7]; in vivo, po, 6 mg/kg): 46.6%
AUC(0-inf) ([7]; in vivo, po, 6 mg/kg): 22800 ng·h/mL
Cmax ([7]; in vivo, po, 6 mg/kg): 1080 ng/mL
Tmax ([7]; in vivo, po, 6 mg/kg, Tmax): 5.33 h
AUC(0-t) ([7]; in vivo, po, 20 mg/kg): 50400 ng·h/mL
bioavailability ([7]; in vivo, po, 20 mg/kg): 34.9%
Tmax ([7]; in vivo, po, 20 mg/kg, Tmax): 7.67 h
Tmax ([7]; in vivo, po, 20 mg/kg, time to peak concentration (Tmax)): 4.6 to 7.7 h
half-life ([7]; iv, 0.5 mg/kg, Dog, Iv. 0.5 mg/kg, read-out: t1/2 (converted)): 2.34 days
half-life ([7]; po, 2 mg/kg, Dog, Po. 2.0 mg/kg, read-out: t1/2 (converted)): 2.13 days
half-life ([7]; po, 6 mg/kg, Dog, Po. 6.0 mg/kg, read-out: t1/2 (converted)): 2.32 days
half-life ([7]; po, 20 mg/kg, Dog, Po. 20.0 mg/kg, read-out: t1/2 (converted)): 2.4 days
half-life ([7]; po, 20 mg/kg, beagle dogs, oral, range over doses of 2, 6, or 20 mg/kg, read-out: plasma half-life (t1/2)): 2.12 to 2.42 days
mortality and moribundity ([8]; 200 mg/kg oral once daily, 14 days, male and female dogs): did not result in mortality and moribundity
ECG: HR [8, 18]: Slowing of the heart rate
ECG: QT interval [8, 18]: Physiologically appropriate lengthening of the QT interval
ECG: RR/PR interval [8, 18]: Lengthening of the RR interval
qualitative ECG changes associated with oral administration [8, 18]: no qualitative ECG changes
effects on blood pressure, heart rate, or qualitative ECG parameters ([8]; dog, in vivo): no adverse effects
cTnI ([8]; dog, in vivo, po, 200 mg/kg): no significant changes
concentration showing bactericidal effects in time-kill test [9]: ≥ 4 × MIC
MIC [10]: 0.124 µg/mL (≈ 0.231 µM)
IC50 [11]: > 30 µM
MBCs (M. tuberculosis H37Rv [12]): 2.500 µg/mL
AUC(0-inf) [13, 19]: 4800 ng·h/mL
AUC(0-t) [13, 19]: 3990 ng·h/mL
Vd [13, 19]: 10.4 L/kg
clearance [13, 19]: 3.59 mL/min/kg
AUC(0-inf) [13, 20]: 11900 ng·h/mL
AUC(0-t) [13, 20]: 10200 ng·h/mL
Cmax [13, 20]: 503 ng/mL
Tmax [13, 20]: 7.33 h
bioavailability [13, 20]: 40.7%
half-life ([13]; BALB/c, mouse, Iv. 1.0 mg/kg): 2780 min
half-life ([13]; BALB/c, mouse, Po. 6.25 mg/kg): 2630 min
At 96 h lung/plasma: lung ([13]; Iv. 1.0 mg/kg): 241
At 96 h lung/plasma: plasma ([13]; Iv. 1.0 mg/kg): 12.4
At 96 h lung/plasma: lung ([13]; Po. 6.25 mg/kg): 857
At 96 h lung/plasma: plasma ([13]; Po. 6.25 mg/kg): 25.3
LD50 ([14]; mouse, in vivo, read-out: LD50 (dose that caused at least 50% of mice to die)): > 3000 mg/kg
tolerability at the administered doses ([14]; no adverse events were found): tolerated
MBCs [15]: 0.313 µg/mL
At 96 h lung/plasma: lung ([16]; Iv. 1.0 mg/kg): 235
At 96 h lung/plasma: plasma ([16]; Iv. 1.0 mg/kg): 3.61
At 96 h lung/plasma: lung ([16]; Po. 5.0 mg/kg): 337
At 96 h lung/plasma: plasma ([16]; Po. 5.0 mg/kg): 4.74
half-life ([16]; Iv. 1.0 mg/kg): 1540 min
half-life ([16]; Po. 5.0 mg/kg): 1790 min
AUC(0-inf) ([16]; rat, in vivo, iv, 1 mg/kg): 2350 ng·h/mL
AUC(0-t) ([16]; rat, in vivo, iv, 1 mg/kg): 2220 ng·h/mL
Vd ([16]; rat, in vivo, iv, 1 mg/kg): 9.2 L/kg
clearance ([16]; rat, in vivo, iv, 1 mg/kg): 8.25 mL/min/kg
AUC(0-inf) ([16]; rat, in vivo, po, 5 mg/kg): 4310 ng·h/mL
AUC(0-t) ([16]; rat, in vivo, po, 5 mg/kg): 4080 ng·h/mL
Cmax ([16]; rat, in vivo, po, 5 mg/kg): 328 ng/mL
Tmax ([16]; rat, in vivo, po, 5 mg/kg): 1 h
bioavailability ([16]; rat, in vivo, po, 5 mg/kg): 36.7%
reduction in CFU compared with BDQ at 10 mg/kg (M. tuberculosis H37Rv [17]; 10 mg/kg, P < 0.05): larger reduction in CFU than BDQ
activity compared with BDQ at the equivalent dose (M. tuberculosis H37Rv [17]; 20 mg/kg): no difference from that of BDQ
culturable organisms in mouse lungs (M. tuberculosis H37Rv [17]; daily 20 mg/kg monotherapy, 20 days): all culturable organisms’ clearance
